Assay results reported in US20130065818A1, “Arylamide Compounds And Compositions And Uses Thereof” (POLYMEDIX, priority 2006, published 2013).
Where two headings read alike, the source gives them in different places.

What was measured:
[1] = system: S. aureus ATCC 27660; assay: MIC, control bacteria (Example 8); assay type: cell-based
Description: (§1) • Mueller-Hinton Broth in tubes was inoculated with 25 ocular isolates of Staphylococcus aureus fluoroquinolone-susceptible, Staphylococcus aureus fluoroquinolone-resistant, Staphylococcus epidermidis (Coagulase-negative Staphylococcus) fluoroquinolone-susceptible, Staphylococcus epidermidis (Coagulase-negative Staphylococcus) fluoroquinolone-resistant, Pseudomonas aeruginosa and Serratia marcescens, plus two controls (Staphylococcus aureus and E. coli) and incubated at 37° C. overnight on a shaker set at 250 rpm.
(§2) Control Bacteria—The two control bacteria (Staphylococcus aureus and E. coli) were treated as above.
(§3) Control Bacteria Set #1—this set of control bacteria were treated as the Streptococcus pneumoniae, Streptococcus viridans and Moraxella species (including Moraxella catarrhalis) test isolates above; the control bacteria underwent the same conditions as the test Streptococcus pneumoniae, Streptococcus viridans and Moraxella species (including Moraxella catarrhalis) isolates. This set of control bacteria was to determine whether there was a difference in the MICs by performing the MIC determinations in 2% lysed horse red blood cells with the standard method performed in Mueller-Hinton broth.
(§4) Control Bacteria Set #2—the control bacteria were added to 5 ml of Mueller-Hinton Broth without the 2% lysed horse red blood cells to achieve the standard inoculum concentration. This set of control bacteria is the normal control to determine whether the compounds are at the target MICs.
(§5) Control Bacteria Set #1—this set of control bacteria were treated as the Haemophilus influenzae test isolates above; the control bacteria underwent the same conditions as the test Haemophilus influenzae isolates. This set of control bacteria is to determine whether there was a difference in the MICs by performing the MIC determinations in HTM broth with the standard method performed in Mueller-Hinton broth.
(§6) Control Bacteria Set #2—the control bacteria were added to 5 ml of Mueller-Hinton Broth to achieve the standard inoculum concentration. This set of control bacteria is the normal control to determine whether the compounds are at the target MICs.
(§7) Ninety μl of the bacterial suspensions was dispensed in each well from column 1 to column 12. Each bacterial isolate was placed in one row of a 96 well polypropylene plate containing the test agents. The plates were placed on shaker at 15 minutes at room temperature, and then incubated at 37° C. overnight. MICs were determined visually as the lowest concentration of drug that inhibits visible bacterial growth.

[2] = system: E. coli D31; assay: MIC, control bacteria (Example 8); assay type: cell-based
Description: as §1, §2, §3, §4, §5, §6, §7

[3] = Control Bacteria S. aureus ATCC 27660
[4] = Control Bacteria Set #1, run with Haemophilus influenzae MIC test, read-out: MIC

N=C(N)NCCCCC(=O)Nc1cc(C(F)(F)F)cc(NC(=O)c2cnc(C(=O)Nc3cc(C(F)(F)F)cc(NC(=O)CCCCNC(=N)N)c3SCCN)cn2)c1SCCN [Oligomer 5]
16 µg/mL: MIC ([1]; S. aureus ATCC 27660, Control for MIC Test SA-FQS, first batch) | MIC ([1]; Staphylococcus aureus, ATCC27660, S. aureus ATCC 27660, control bacteria run with S. aureus fluoroquinolone-susceptible MIC test, read-out: MIC) | MIC ([1]; Staphylococcus aureus, ATCC27660, control for MIC test SA-FQS, read-out: MIC of control bacteria on day of MIC testing) | MIC [2, 4] | MIC ([2]; E. coli D31, Control for MIC Test SA-FQS, first batch) | MIC ([2]; E. coli D31, new batches, Control Only 4) | MIC ([2]; Escherichia coli, D31, Control Only 4, read-out: MIC of control bacteria on day of MIC testing) | MIC ([2]; Escherichia coli, D31, E. coli D31, Control Bacteria Set #2 (Mueller-Hinton Broth), run with Streptococcus pneumoniae MIC test, read-out: MIC) | MIC ([2]; Escherichia coli, D31, E. coli D31, Control Bacteria Set #2 (Mueller-Hinton Broth), run with Streptococcus viridans group MIC test, read-out: MIC) | MIC ([2]; Escherichia coli, D31, E. coli D31, control bacteria run with S. aureus fluoroquinolone-susceptible MIC test, read-out: MIC) | MIC ([2]; Escherichia coli, D31, control for MIC test HI (Control Bacteria Set #2), read-out: MIC of control bacteria on day of MIC testing) | MIC ([2]; Escherichia coli, D31, control for MIC test MS (Control Bacteria Set #2), read-out: MIC of control bacteria on day of MIC testing) | MIC ([2]; Escherichia coli, D31, control for MIC test SA-FQS, read-out: MIC of control bacteria on day of MIC testing) | MIC ([2]; Escherichia coli, D31, control for MIC test SP, read-out: MIC of control bacteria on day of MIC testing) | MIC ([2]; Escherichia coli, D31, control for MIC test SV, read-out: MIC of control bacteria on day of MIC testing)
8 µg/mL: MIC ([1]; S. aureus ATCC 27660, Control for MIC Test SA-FQR, first batch) | MIC ([1]; Staphylococcus aureus, ATCC27660, S. aureus ATCC 27660, control bacteria run with S. aureus fluoroquinolone-resistant MIC test, read-out: MIC) | MIC ([1]; Staphylococcus aureus, ATCC27660, control for MIC test SA-FQR, read-out: MIC of control bacteria on day of MIC testing) | MIC ([2]; E. coli D31, new batches, Control Only 1) | MIC ([2]; E. coli D31, new batches, Control Only 2) | MIC ([2]; E. coli D31, new batches, Control Only 3) | MIC ([2]; Escherichia coli, D31, Control Only 1, read-out: MIC of control bacteria on day of MIC testing) | MIC ([2]; Escherichia coli, D31, Control Only 2, read-out: MIC of control bacteria on day of MIC testing) | MIC ([2]; Escherichia coli, D31, Control Only 3, read-out: MIC of control bacteria on day of MIC testing) | MIC ([2]; Escherichia coli, D31, E. coli D31, control bacteria run with Pseudomonas aeruginosa MIC test, read-out: MIC) | MIC ([2]; Escherichia coli, D31, control for MIC test PA, read-out: MIC of control bacteria on day of MIC testing)
no effect: Decrease of activity by use of HTM broth ([2]; Control Bacteria E. coli D31)
0.78 µg/mL: MIC ([1]; S. aureus ATCC 27660) | MIC ([1]; Staphylococcus aureus, ATCC27660, S. aureus ATCC 27660, MIC previously obtained (target MIC), printed in parentheses, read-out: MIC for Control Bacteria within the parentheses) | MIC ([1]; Staphylococcus aureus, ATCC27660, S. aureus ATCC27660, read-out: MIC) | MIC ([1]; Staphylococcus aureus, ATCC27660, reference MIC printed in parentheses beside the day's control value, read-out: MIC for Control Bacteria (within the parentheses))
1 µg/mL: MIC ([1]; Staphylococcus aureus, ATCC27660, Control Bacteria Set #1, run with Moraxella MIC test, read-out: MIC) | MIC ([1]; Staphylococcus aureus, ATCC27660, S. aureus ATCC 27660, Control Bacteria Set #1 (same conditions as test isolates), run with Streptococcus pneumoniae MIC test, read-out: MIC) | MIC ([1]; Staphylococcus aureus, ATCC27660, S. aureus ATCC 27660, Control Bacteria Set #1 (same conditions as test isolates), run with Streptococcus viridans group MIC test, read-out: MIC) | MIC ([1]; Staphylococcus aureus, ATCC27660, S. aureus ATCC 27660, Control Bacteria Set #2 (Mueller-Hinton Broth), run with Streptococcus viridans group MIC test, read-out: MIC) | MIC ([1]; Staphylococcus aureus, ATCC27660, control for MIC test SV, read-out: MIC of control bacteria on day of MIC testing)
4 µg/mL: MIC [1, 4] | MIC ([2]; E. coli D31, Control for MIC Test SA-FQR, first batch) | MIC ([2]; Escherichia coli, D31, E. coli D31, control bacteria run with S. aureus fluoroquinolone-resistant MIC test, read-out: MIC) | MIC ([2]; Escherichia coli, D31, E. coli D31, control bacteria run with S. epidermidis fluoroquinolone-resistant MIC test, read-out: MIC) | MIC ([2]; Escherichia coli, D31, E. coli D31, control bacteria run with S. epidermidis fluoroquinolone-susceptible MIC test, read-out: MIC) | MIC ([2]; Escherichia coli, D31, E. coli D31, control bacteria run with Serratia marcescens MIC test, read-out: MIC) | MIC ([2]; Escherichia coli, D31, control for MIC test SA-FQR, read-out: MIC of control bacteria on day of MIC testing) | MIC ([2]; Escherichia coli, D31, control for MIC test SE-FQR, read-out: MIC of control bacteria on day of MIC testing) | MIC ([2]; Escherichia coli, D31, control for MIC test SE-FQS, read-out: MIC of control bacteria on day of MIC testing) | MIC ([2]; Escherichia coli, D31, control for MIC test SM, read-out: MIC of control bacteria on day of MIC testing)
0.25 µg/mL: MIC ([1]; S. aureus ATCC 27660, new batches, Control Only 1) | MIC ([1]; S. aureus ATCC 27660, new batches, Control Only 2) | MIC ([1]; Staphylococcus aureus, ATCC27660, Control Only 1, read-out: MIC of control bacteria on day of MIC testing) | MIC ([1]; Staphylococcus aureus, ATCC27660, Control Only 2, read-out: MIC of control bacteria on day of MIC testing) | MIC ([1]; Staphylococcus aureus, ATCC27660, S. aureus ATCC 27660, control bacteria run with Pseudomonas aeruginosa MIC test, read-out: MIC) | MIC ([1]; Staphylococcus aureus, ATCC27660, S. aureus ATCC 27660, control bacteria run with S. epidermidis fluoroquinolone-resistant MIC test, read-out: MIC) | MIC ([1]; Staphylococcus aureus, ATCC27660, S. aureus ATCC 27660, control bacteria run with S. epidermidis fluoroquinolone-susceptible MIC test, read-out: MIC) | MIC ([1]; Staphylococcus aureus, ATCC27660, control for MIC test PA, read-out: MIC of control bacteria on day of MIC testing) | MIC ([1]; Staphylococcus aureus, ATCC27660, control for MIC test SE-FQR, read-out: MIC of control bacteria on day of MIC testing) | MIC ([1]; Staphylococcus aureus, ATCC27660, control for MIC test SE-FQS, read-out: MIC of control bacteria on day of MIC testing)
0.5 µg/mL: MIC ([1]; S. aureus ATCC 27660, new batches, Control Only 3) | MIC ([1]; S. aureus ATCC 27660, new batches, Control Only 4) | MIC ([1]; Staphylococcus aureus, ATCC27660, Control Only 3, read-out: MIC of control bacteria on day of MIC testing) | MIC ([1]; Staphylococcus aureus, ATCC27660, Control Only 4, read-out: MIC of control bacteria on day of MIC testing) | MIC ([1]; Staphylococcus aureus, ATCC27660, S. aureus ATCC 27660, control bacteria run with Serratia marcescens MIC test, read-out: MIC) | MIC ([1]; Staphylococcus aureus, ATCC27660, control for MIC test HI (Control Bacteria Set #2), read-out: MIC of control bacteria on day of MIC testing) | MIC ([1]; Staphylococcus aureus, ATCC27660, control for MIC test MS (Control Bacteria Set #2), read-out: MIC of control bacteria on day of MIC testing) | MIC ([1]; Staphylococcus aureus, ATCC27660, control for MIC test SM, read-out: MIC of control bacteria on day of MIC testing)
2 µg/mL: MIC ([1]; Staphylococcus aureus, ATCC27660, S. aureus ATCC 27660, Control Bacteria Set #2 (Mueller-Hinton Broth), run with Streptococcus pneumoniae MIC test, read-out: MIC) | MIC ([1]; Staphylococcus aureus, ATCC27660, control for MIC test SP, read-out: MIC of control bacteria on day of MIC testing) | MIC ([2]; Escherichia coli, D31, Control Bacteria Set #1, run with Moraxella MIC test, read-out: MIC) | MIC ([2]; Escherichia coli, D31, E. coli D31, Control Bacteria Set #1 (same conditions as test isolates), run with Streptococcus pneumoniae MIC test, read-out: MIC) | MIC ([2]; Escherichia coli, D31, E. coli D31, Control Bacteria Set #1 (same conditions as test isolates), run with Streptococcus viridans group MIC test, read-out: MIC)
increase or have no effect: Decrease of activity by addition of 2% lysed horse red blood cells to Mueller-Hinton broth [1, 3] | Decrease of activity by addition of 2% lysed horse red blood cells to Mueller-Hinton broth ([2]; Control Bacteria E. coli D31)
1.56 µg/mL: MIC ([2]; Escherichia coli, D31, E. coli D31, MIC previously obtained (target MIC), printed in parentheses, read-out: MIC for Control Bacteria within the parentheses) | MIC ([2]; Escherichia coli, D31, E. coli D31, read-out: MIC) | MIC ([2]; Escherichia coli, D31, reference MIC printed in parentheses beside the day's control value, read-out: MIC for Control Bacteria (within the parentheses))
approximately 8 fold: Decrease of activity by use of HTM broth [1, 3]
